# Experimental data taken from the supplement of paper PMC10307832.
# Legend:
# Assay in all cases: relative viability (nuclei count vs DMSO), 5 days (fraction); higher = more cells survive
# Mirin + OSI-027 = compound: N=C1NC(=O)/C(=C/c2ccc(O)cc2)S1 [Mirin] + COc1cccc2cc(-c3nc([C@H]4CC[C@H](C(=O)O)CC4)n4ncnc(N)c34)[nH]c12 [OSI-027] (partner 0.5 µM)
# Procedure, shortened: (§1)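 Dosing by pin tool came one day after lung cancer cell lines were seeded in 1536-well plates, using either one drug or a fixed anchor-drug dose plus five library-drug doses (not always all listed) in √10 steps. After 5 days, nuclei were counted on 4× images. Relative viability is treated-well nuclei count divided by vehicle-well nuclei count, and values are medians of duplicate plates.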
# Mirin + Alpelisib = compound: N=C1NC(=O)/C(=C/c2ccc(O)cc2)S1 [Mirin] + Cc1nc(NC(=O)N2CCC[C@H]2C(N)=O)sc1-c1ccnc(C(C)(C)C(F)(F)F)c1 [Alpelisib] (partner 2 µM)
# Procedure, shortened: as §1
# Mirin + Crizotinib = compound: N=C1NC(=O)/C(=C/c2ccc(O)cc2)S1 [Mirin] + C[C@@H](Oc1cc(-c2cnn(C3CCNCC3)c2)cnc1N)c1c(Cl)ccc(F)c1Cl [Crizotinib] (partner 1 µM)
# Procedure, shortened: as §1
# Mirin + Foretinib = compound: N=C1NC(=O)/C(=C/c2ccc(O)cc2)S1 [Mirin] + COc1cc2c(Oc3ccc(NC(=O)C4(C(=O)Nc5ccc(F)cc5)CC4)cc3F)ccnc2cc1OCCCN1CCOCC1 [Foretinib] (partner 0.25 µM)
# Procedure, shortened: as §1
Cell Line,relative viability (Mirin + OSI-027; first compound 0.25 µM),relative viability (Mirin + OSI-027; first compound 0.7906 µM),relative viability (Mirin + OSI-027; first compound 2.5 µM),relative viability (Mirin + OSI-027; first compound 7.906 µM),relative viability (Mirin + OSI-027; first compound 25 µM),relative viability (Mirin + Alpelisib; first compound 0.25 µM),relative viability (Mirin + Alpelisib; first compound 0.7906 µM),relative viability (Mirin + Alpelisib; first compound 2.5 µM),relative viability (Mirin + Alpelisib; first compound 7.906 µM),relative viability (Mirin + Alpelisib; first compound 25 µM),relative viability (Mirin + Crizotinib; first compound 0.25 µM),relative viability (Mirin + Crizotinib; first compound 0.7906 µM),relative viability (Mirin + Crizotinib; first compound 2.5 µM),relative viability (Mirin + Crizotinib; first compound 7.906 µM),relative viability (Mirin + Crizotinib; first compound 25 µM),relative viability (Mirin + Foretinib; first compound 0.25 µM),relative viability (Mirin + Foretinib; first compound 0.7906 µM),relative viability (Mirin + Foretinib; first compound 2.5 µM),relative viability (Mirin + Foretinib; first compound 7.906 µM),relative viability (Mirin + Foretinib; first compound 25 µM)
NCI-H522,0.705,0.513,0.762,0.688,0.62,,,,,,,,,,,,,,,
NCI-H1299,,,,,,1.01,1.16,1.06,0.622,1.21,0.991,1.05,0.947,0.997,1.08,1.1,1.15,1.07,1.12,1.24
NCI-H1395,0.616,0.618,0.705,0.61,0.564,1.04,,1.08,0.873,0.943,,,,,,0.908,0.994,1.03,0.977,1.14
NCI-H1623,0.444,0.442,0.421,0.336,0.376,,,,,,,,,,,0.787,0.708,0.865,0.716,0.625
NCI-H1648,0.279,0.276,0.232,0.261,0.26,,,,,,,,,,,,,,,
NCI-H1650,0.577,0.601,0.729,0.643,0.403,,,,,,0.928,0.959,0.952,1.11,1.16,1.22,1.11,0.968,1.43,0.782
NCI-H1703,,,,,,0.363,0.259,0.314,,0.213,0.603,0.519,0.757,0.523,0.493,0.309,0.31,0.368,0.413,0.3
NCI-H1792,0.724,0.746,0.745,,0.634,0.743,0.691,0.81,0.613,0.641,1.02,1.01,1.05,0.864,0.963,,,,,
NCI-H1793,0.289,,0.335,0.286,0.259,0.724,0.747,0.775,0.764,0.482,,,,,,0.731,,0.739,0.777,0.559
NCI-H2342,0.618,0.634,0.579,0.489,0.558,,,,,,,,,,,1.14,1.11,1.15,1.03,0.861
SW 900,0.487,0.597,0.701,0.434,0.75,,,,,,,,,,,1.02,1.19,1.1,0.866,0.827
